Results taken from US20100215696A1, “E[…] C VIRUS MUTANT, A HEPTITIS C VIRUS MUTANT […] GENE, A METHOD OF PREPARING OF HCV VACCINE USING THE SAME AND A METHOD OF SCREENING ANTI HCV COMPOSITION USING THE SAME” (priority 2007, published 2010).

Test system: JFH 5a-GFP
Test: Real time assessment of anti-viral activity in individual JFH 5a-GFP infected Huh 7.5.1 cells (time-lapse confocal GFP fluorescence)
Assay type: cell-based, hepatitis C virus
Conditions: 1000 IU/ml IFN-α, monitored every 12 hours up to 60 hours, FIGS. 13-16
Procedure: Huh 7.5.1 cells were infected with culture supernatant obtained from the transformant transfected with JFH 5a-GFP RNA (the transformant was transformed with the introduction of JFH 5a-GFP RNA via electroporation into Huh 7.5.1 cells, in Example 2-1).
After treating or mock-treating (i.e., no IFN-α treated) the transformant with IFN-α, GFP fluorescence was monitored every 12 hours up to 60 hours by using time-lapse confocal microscopy (Zeiss LSM 5 Live). For time-lapse imaging, coverslips were mounted onto the microscope stage, which was equipped with a temperature- and gas-controlled chamber (Chamide IC, Live Cell Instrument, Korea).
In addition, quantitative analyses of the fluorescence images of 8 cells were made by using MetaMorph software. The grouping of the figures was made depending on whether the cell was treated with IFN-α.
FIGS. 10 and 14 are graphs showing changing fluorescence levels in 8 transformants, in absolute values. FIGS. 11 and 15 are graphs showing changing fluorescence levels over time in 8 transformants, in relative values against the starting value, i.e., the value given to the transformants with no IFN-α treated.

Interferon-alpha [IFN-α]
5a-GFP fluorescence intensities over time in 8 transformants: seven among eight transformants showed decreasing fluorescence intensities over time
